The values that follow come from article PMC6152416, “Pharmacological and Toxicological Screening of Novel Benzimidazole-Morpholine Derivatives as Dual-Acting Inhibitors” (Molecules : A Journal of Synthetic Chemistry and Natural …, 2017).

What all share (format): cell-based
For data set [1], the system named is Pseudomona aeuroginosa ATCC 27853. The experiment in a line: Antimicrobial broth microdilution (CLSI M07-A9). The following applies: for MIC50: Pseudomona aeuroginosa [sic] ATCC 27853; for fold lower MIC50 / greater activity than chloramphenicol: Pseudomona aeuroginosa ATCC 27853. The protocol:
Microbiological studies were performed according to CLSI reference M07-A9 broth microdilution method for bacterial strains and EUCAST definitive method EDef 7.1 for Candida species. Synthesized compounds were tested for their in vitro growth inhibitory activity against Escherichia coli ATCC 35218, Escherichia coli ATCC 25922, Staphylococcus aureus, ATCC 25923, Pseudomona aeuroginosa ATCC 27853, Enterococcus faecalis ATCC29212, Klebsiella pneumoniae ATCC700603 Listeria monocytogenes ATCC7644, Candida albicans ATCC90028, Candida glabrata ATCC 90030, Candida krusei ATCC 6258, Candida parapsilosis ATCC 22019.
The cultures were obtained from Mueller-Hinton broth (Difco) for the bacterial strains and the yeasts were maintained in Roswell Park Memorial Institute (RPMI) medium, after an overnight incubation at 37 °C for both. The inocula of the test microorganisms were adjusted to match an equivalent turbidity of a 0.5 McFarland standard, which was determined using a spectrophotometer; the final inoculum size was determined to be 0.5–2.5 × 10^5 cfu/mL for antibacterial and antifungal assays. The tests were carried out for both mediums at pH = 7 and two-fold serial dilutions were applied. The last well on the microplates, which was containing only the inoculated broth, was kept as control, and the last well with no growth of microorganism was recorded to represent the minimum inhibitory concentration (MIC50) in μg/mL. For both of the antibacterial and antifungal assays, the test compounds and reference drugs were firstly dissolved in DMSO, and further dilutions were performed to the desired concentrations of 1000, 500, 250, 125, 62.5, 31.25, 15.6, 7.8, 3.9 and 1.95 μg/mL using Mueller–Hinton broth and RPMI medium. The completed plates were incubated for 24 h, and at the end of the incubation, resazurin (20 µg/mL) was added into each well to control the growth in the wells. Final plates including microorganism strains were incubated for 2 h. MIC50 values were determined using microplate reader at […] wavelengths; MIC50 readings were performed twice for entire compounds. Chloramphenicol and ketoconazole were used as reference drugs.
For orientation: In broth dilution the organism is exposed to a series of concentrations in liquid medium.

Data set [2] relates to Salmonella typhimurium TA98. The experiment in a line: Ames MPF genotoxicity assay. The conditions noted are these: for Ames MPF mutagenicity classification: TA98, in the presence/absence of metabolic activation (S9). As for the experimental part: (§1) The genotoxicity of selected compounds (2b, 2j, 2m) was determined by Ames assay using Ames MPF 98/100 mutagenicity assay sample kit (Xenometrix AG, Allschwil, Switzerland) as previously described elsewhere. Salmonella typhimurium strains, TA98 (frameshift mutations) and TA100 (base-pair substitutions) were used in the assay. The concentration of the compounds was between 16 and 5000 μg/mL, in accordance with the guideline. Compounds were prepared in six different concentrations (5.0, 2.5, 1.25, 0.625, 0.3125, 0.156 mg/mL) in DMSO. Mutagenic potential was determined in the absence or presence of Aroclor™-1254 induced male Sprague–Dawley rat liver microsomal enzyme (S9) mix (Xenometrix AG). Positive controls without S9 mix were 2-nitrofluorene (2.0 μg/mL) and 4-nitroquinoline N-oxide (0.1 μg/mL), whereas 1.0 μg/mL and 2.5 μg/mL of 2-aminoanthracene solutions were used as positive controls with S9 against TA98 and TA100, respectively. Solvent control was prepared with 4% DMSO. The end of an experiment was determined by the change of the indicator medium colour to yellow, which was originating from the decrease of pH due to revertant bacteria. Yellow wells were counted as positive, and compared with the negative control. Fold induction over the negative control and fold induction over the baseline were calculated (Fold induction over the negative control is accepted as the ratio of the mean number of positive wells for the dose concentration divided by the mean number of positive wells for the zero dose (negative) control. Fold induction over the baseline is accepted as the ratio of the mean number of positive wells for the dose concentration divided by zero dose baseline. The zero-dose baseline is obtained by adding one standard deviation to the mean number of positive wells of the zero dose control. If the baseline is less than 1, the value is set to 1 for calculation).
(§2) Mutagenicity was determined according to the criteria reported previously. For a baseline value of ≤3, significant increases between 2 and 3-fold of the baseline were classified as weak mutagen, and increases ≥3-fold of the baseline were classified as mutagen. […] As a rule, at least two adjacent doses with significant increases or a significant increase at the highest dose level should be observed for a mutagenic compound. All of the doses were compared according to Student’s t-test at p < 0.05 for statistical significance.
Background: The Ames test uses bacterial strains that need an amino acid and regain growth without it when mutated back.

The subject of data set [3] is Salmonella typhimurium TA100. The experiment in a line: Ames MPF genotoxicity assay. The following applies: for Ames MPF mutagenicity classification: TA100, with/without metabolic activation (S9). As for the experimental part: as §1, §2

In brackets after ≈: the same amount, converted by molar mass. Entries after “also recorded” stand apart in the source; their conditions may differ. Marks after values point to notes of the source that are not given here.

In the case of `CC(C)c1ccc(-c2nc3ccccc3n2CCN2CCOCC2)cc1` [Compound 2e, 2-(4-Isopropylphenyl)-1-[2-(morpholin-4-yl)ethyl]-1H-benzimidazole], the MIC50 (usually an inhibitory concentration at the 50% level, which refers to growth in some studies and to a panel of isolates in others) in data set [1] was determined as 250 µg/mL (≈ 715 µM).

Turning to `CCOc1ccc(-c2nc3ccccc3n2CCN2CCOCC2)cc1` [Compound 2j, 2-(4-Ethoxyphenyl)-1-[2-(morpholin-4-yl)ethyl]-1H-benzimidazole], the “REVERTANTS Fold Increase (over Baseline)” value in data set [2] (TA98, S9+, 0.156 mg/mL) is 0.25; in data set [2] (TA98, S9+, 0.3125 mg/mL), 0.12 *; in data set [2] (TA98, S9+, 0.625 mg/mL), 0.62; in data set [2] (TA98, S9+, 1.25 mg/mL) it was 0.74; in data set [2] (TA98, S9+, 2.5 mg/mL) it was 0.12; in data set [2] (TA98, S9+, 5 mg/mL), 0.74 *. Moreover, the “REVERTANTS Fold Increase (over Baseline)” value is 0.60 in data set [2] (TA98, S9−, 0.156 mg/mL); 0.94 in data set [2] (TA98, S9−, 0.3125 mg/mL); 0.68 in data set [2] (TA98, S9−, 0.625 mg/mL); 0.60 in data set [2] (TA98, S9−, 1.25 mg/mL); 0.94 in data set [2] (TA98, S9−, 2.5 mg/mL); 0.09 *** in data set [2] (TA98, S9−, 5 mg/mL). Moreover, the “REVERTANTS Fold Increase (over Baseline)” value is on record as 0.15 in data set [3] (TA100, S9+, 0.156 mg/mL); 0.00 in data set [3] (TA100, S9+, 0.3125 mg/mL); 0.15 in data set [3] (TA100, S9+, 0.625 mg/mL); 0.38 in data set [3] (TA100, S9+, 1.25 mg/mL); 0.31 in data set [3] (TA100, S9+, 2.5 mg/mL); 0.15 in data set [3] (TA100, S9+, 5 mg/mL). Moreover, the “REVERTANTS Fold Increase (over Baseline)” value is reported as 0.80 in data set [3] (TA100, S9−, 0.156 mg/mL); 1.00 in data set [3] (TA100, S9−, 0.3125 mg/mL); 0.40 in data set [3] (TA100, S9−, 0.625 mg/mL); 0.67 in data set [3] (TA100, S9−, 1.25 mg/mL); 0.67 *** in data set [3] (TA100, S9−, 2.5 mg/mL); 1.20 in data set [3] (TA100, S9−, 5 mg/mL). In addition, the “Ames MPF mutagenicity classification” value in data set [2] and in data set [3] was “non-genotoxic; also recorded: non-mutagenic” throughout.

Turning to `Clc1ccc(-c2nc3ccccc3n2CCN2CCOCC2)cc1` [Compound 2c, 2-(4-Chlorophenyl)-1-[2-(morpholin-4-yl)ethyl]-1H-benzimidazole], in data set [1], the “fold lower MIC50 / greater activity than chloramphenicol” value was found to be 2 fold and the MIC50 was 125 µg/mL (≈ 366 µM).

For `COc1ccc(-c2nc3ccccc3n2CCN2CCOCC2)cc1` [Compound 2b, 2-(4-Methoxyphenyl)-1-[2-(morpholin-4-yl)ethyl]-1H-benzimidazole], the “fold lower MIC50 / greater activity than chloramphenicol” value in data set [1] amounted to 16 fold. The MIC50 in data set [1] worked out at 0.0156 µg/mL (≈ 0.0462 µM). Besides, the “REVERTANTS Fold Increase (over Baseline)” value in data set [2] (TA98, S9+, 0.156 mg/mL) came out at 0.16; in data set [2] (TA98, S9+, 0.3125 mg/mL) it was 0.32; in data set [2] (TA98, S9+, 0.625 mg/mL), 0.00; in data set [2] (TA98, S9+, 1.25 mg/mL), 0.48; in data set [2] (TA98, S9+, 2.5 mg/mL), 0.80; in data set [2] (TA98, S9+, 5 mg/mL), 1.27. Besides, the “REVERTANTS Fold Increase (over Baseline)” value was determined as 0.69 in data set [2] (TA98, S9−, 0.156 mg/mL); 0.75 in data set [2] (TA98, S9−, 0.3125 mg/mL); 0.81 in data set [2] (TA98, S9−, 0.625 mg/mL); 0.40 in data set [2] (TA98, S9−, 1.25 mg/mL); 0.40 in data set [2] (TA98, S9−, 2.5 mg/mL); 0.75 in data set [2] (TA98, S9−, 5 mg/mL). In addition, the “REVERTANTS Fold Increase (over Baseline)” value in data set [3] (TA100, S9+, 0.156 mg/mL) is given as 0.06; in data set [3] (TA100, S9+, 0.3125 mg/mL), 0.52; in data set [3] (TA100, S9+, 0.625 mg/mL), 0.45; in data set [3] (TA100, S9+, 1.25 mg/mL) it was 0.26; in data set [3] (TA100, S9+, 2.5 mg/mL), 0.26; in data set [3] (TA100, S9+, 5 mg/mL), 0.13. The “REVERTANTS Fold Increase (over Baseline)” value in data set [3] (TA100, S9−, 0.156 mg/mL) was 1.31 ***; in data set [3] (TA100, S9−, 0.3125 mg/mL), 1.37 ***; in data set [3] (TA100, S9−, 0.625 mg/mL), 0.69; in data set [3] (TA100, S9−, 1.25 mg/mL), 0.62; in data set [3] (TA100, S9−, 2.5 mg/mL), 0.25 ***; in data set [3] (TA100, S9−, 5 mg/mL), 0.44 *. Moreover, the “Ames MPF mutagenicity classification” value in data set [2] is recorded as “non-genotoxic; also recorded: non-mutagenic”; in data set [3] it was “non-genotoxic”.

`FC(F)(F)Oc1ccc(-c2nc3ccccc3n2CCN2CCOCC2)cc1` [Compound 2m, 2-(4-Trifluoromethoxyphenyl)-1-[2-(morpholin-4-yl)ethyl]-1H-benzimidazole]: in data set [1], the “fold lower MIC50 / greater activity than chloramphenicol” value was 2 fold. The MIC50 in data set [1] worked out at 125 µg/mL (≈ 319 µM). Further, the “REVERTANTS Fold Increase (over Baseline)” value in data set [2] (TA98, S9+, 0.156 mg/mL) is 0.46; in data set [2] (TA98, S9+, 0.3125 mg/mL), 0.62; in data set [2] (TA98, S9+, 0.625 mg/mL) it was 0.77; in data set [2] (TA98, S9+, 1.25 mg/mL), 0.46; in data set [2] (TA98, S9+, 2.5 mg/mL) it was 1.23; in data set [2] (TA98, S9+, 5 mg/mL) it was 0.31. The “REVERTANTS Fold Increase (over Baseline)” value in data set [2] (TA98, S9−, 0.156 mg/mL) was 0.95; in data set [2] (TA98, S9−, 0.3125 mg/mL) it was 0.70; in data set [2] (TA98, S9−, 0.625 mg/mL) it was 0.57; in data set [2] (TA98, S9−, 1.25 mg/mL), 1.08 *; in data set [2] (TA98, S9−, 2.5 mg/mL), 0.82; in data set [2] (TA98, S9−, 5 mg/mL), 1.08 *. In addition, the “REVERTANTS Fold Increase (over Baseline)” value is reported as 0.10 in data set [3] (TA100, S9+, 0.156 mg/mL); 0.10 in data set [3] (TA100, S9+, 0.3125 mg/mL); 0.88 in data set [3] (TA100, S9+, 0.625 mg/mL); 0.19 in data set [3] (TA100, S9+, 1.25 mg/mL); 0.49 in data set [3] (TA100, S9+, 2.5 mg/mL); 0.29 in data set [3] (TA100, S9+, 5 mg/mL). In addition, the “REVERTANTS Fold Increase (over Baseline)” value in data set [3] (TA100, S9−, 0.156 mg/mL) turned out to be 0.61; in data set [3] (TA100, S9−, 0.3125 mg/mL) it was 0.88; in data set [3] (TA100, S9−, 0.625 mg/mL), 0.47; in data set [3] (TA100, S9−, 1.25 mg/mL) it was 0.47; in data set [3] (TA100, S9−, 2.5 mg/mL), 0.54; in data set [3] (TA100, S9−, 5 mg/mL), 0.61. Further, the “Ames MPF mutagenicity classification” value in data set [2] and in data set [3] was “non-genotoxic; also recorded: non-mutagenic” in each case.
